Assays:
Carbonic anhydrase 1 = Carbonic anhydrase 1 (Homo sapiens, UniProt P00915); assay: Esterase Activity Assay; conditions: pH 7.4; 25 °C
Method: (§1) CA activity was assayed according to method of Verpoorte et al. [Verpoorte et al., J. Biol. Chem., 242:4221-4229] described previously by Innocenti et al. [Innocenti et al., Bioorg. Med. Chem., 18:2159-2164; Innocenti et al., Bioorg. Med. Chem. Lett., 20:5050-5053] CA activity was determined by following thechange in absorbance at 348 nm of 4-nitrophenylacetate (NPA) to 4-nitrophenylate ion over a period of 3 min at 25°C using a spectrophotometer (CHEBIOS UV-VIS). The enzymatic reaction, in a total volume of 3.0 mL, contained 1.4 mL 0.05 M Tris-SO4 buffer (pH 7.4), 1 mL, 3 mM 4-nitrophenylacetate, 0.5 mL H2O and 0.1 mL enzyme solution. A reference measurement was obtained by preparing the same cuvette without enzyme solution. The inhibitory effects of ampicillin sulfate, ceftriaxone, ceftizoxime, ranitidine were examined. All compounds were tested in triplicate at each concentration used. Different inhibitor concentrations were used. HCA-I enzyme activities were measured for ceftriaxone (0.003-0.033 mM), ceftizoxime (0.017-0.096 mM), ranitidine (0.026-0.053 mM) at cuvette concentrations and HCAII enzyme activities were measured for ampicillin sulfate (0.038-0.095 mM), ceftriaxone (0.003-0.021 mM), ceftizoxime (0.026-0.061 mM) and ranitidine (0.032-0.058 mM) at cuvette concentrations.

Carbonic anhydrase 2 = Carbonic anhydrase 2 (Homo sapiens, UniProt P00918); assay: Esterase Activity Assay; conditions: pH 7.4; 25 °C
Method: as §1

Sequence of Carbonic anhydrase 1 (P00915 whole entry): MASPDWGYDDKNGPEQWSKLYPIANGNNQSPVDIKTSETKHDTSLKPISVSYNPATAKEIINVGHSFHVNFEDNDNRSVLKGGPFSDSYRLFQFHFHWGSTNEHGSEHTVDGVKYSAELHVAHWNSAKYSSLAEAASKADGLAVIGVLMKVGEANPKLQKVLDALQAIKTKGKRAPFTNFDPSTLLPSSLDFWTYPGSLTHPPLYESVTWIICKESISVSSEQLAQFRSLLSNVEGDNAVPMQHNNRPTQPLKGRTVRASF

For CO/N=C(\C(=O)N[C@@H]1C(=O)N2C(C(=O)O)=C(CSc3nc(=O)c(=O)[nH]n3C)CS[C@H]12)c1csc(N)n1 [(6R,7R)-7-{2-(2-Amino-thiazol-4-yl)-2-[(Z)-methoxyimino]-acetylamino}-3-(2-methyl-5,6-dioxo-1,2,5,6-tetrahydro-[1,2,4]triazin-3-ylsulfanylmethyl)-8-oxo-5-thia-1-aza-bicyclo[4.2.0]oct-2-ene-2-carboxylic acid], the IC50 (Carbonic anhydrase 1) was 27.1 µM, the Ki (Carbonic anhydrase 1) was 28.5 µM and the IC50 (Carbonic anhydrase 2) was 21 µM. For the same compound, the Ki (Carbonic anhydrase 2) was 15.8 µM.

Work on CC1(C)S[C@@H]2[C@H](NC(=O)[C@H](N)c3ccccc3)C(=O)N2[C@H]1C(=O)O [AY-6108] yielded an IC50 (Carbonic anhydrase 2) of 56.8 µM and a Ki (Carbonic anhydrase 2) of 83 µM.

For CO/N=C(\C(=O)N[C@@H]1C(=O)N2C(C(=O)O)=CCS[C@H]12)c1csc(N)n1 [Ceftizoxime], the IC50 (Carbonic anhydrase 1) was 79.4 µM, the Ki (Carbonic anhydrase 1) was 86.1 µM and the IC50 (Carbonic anhydrase 2) was 79.1 µM. It also gave a Ki (Carbonic anhydrase 2) of 51.8 µM.

CN/C(=C\[N+](=O)[O-])NCCSCc1ccc(CN(C)C)o1 [Ranitidine] showed an IC50 (Carbonic anhydrase 1) of 55.5 µM, a Ki (Carbonic anhydrase 1) of 54.7 µM and an IC50 (Carbonic anhydrase 2) of 66.1 µM. It also gave a Ki (Carbonic anhydrase 2) of 29.7 µM.

Reference: BindingDB's records for doi:10.3109/14756366.2011.604852 (Erzincan University, 2012)
